Here are results for 37 molecules from patent US9051290B2, “Biaryl phosphodiesterase inhibitors” (LEO PHARMA A/S, priority 2010, dated 2015).

Broadly, the IC50 is the midpoint of a concentration-inhibition curve.

SMILES strings stand for the structures.

Chain of Human recombinant PDE4 (Genbank accession no NM—006203) (Q08499 1-673 isoform Q08499-2): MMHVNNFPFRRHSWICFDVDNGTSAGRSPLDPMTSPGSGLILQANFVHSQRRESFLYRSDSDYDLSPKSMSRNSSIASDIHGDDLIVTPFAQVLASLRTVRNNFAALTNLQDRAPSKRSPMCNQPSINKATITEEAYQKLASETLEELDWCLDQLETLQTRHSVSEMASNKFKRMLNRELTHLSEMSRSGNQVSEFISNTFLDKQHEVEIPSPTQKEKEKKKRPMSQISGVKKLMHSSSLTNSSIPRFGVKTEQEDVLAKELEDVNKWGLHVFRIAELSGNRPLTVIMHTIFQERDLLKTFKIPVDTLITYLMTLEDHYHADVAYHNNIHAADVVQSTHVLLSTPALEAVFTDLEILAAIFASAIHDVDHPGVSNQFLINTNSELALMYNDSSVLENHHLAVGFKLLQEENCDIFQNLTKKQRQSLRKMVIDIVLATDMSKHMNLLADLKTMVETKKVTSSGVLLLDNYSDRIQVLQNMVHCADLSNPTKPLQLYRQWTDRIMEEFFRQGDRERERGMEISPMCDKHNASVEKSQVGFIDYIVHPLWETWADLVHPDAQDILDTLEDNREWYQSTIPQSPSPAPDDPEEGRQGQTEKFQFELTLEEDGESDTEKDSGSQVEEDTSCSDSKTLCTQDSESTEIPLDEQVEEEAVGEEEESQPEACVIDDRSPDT

The target in this assay is Human recombinant PDE4 (Genbank accession no NM—006203) (Homo sapiens, UniProt Q08499). Description: PDE4 assay (SPA, cleavage of cAMP). The format is biochemical. To be noted: 1 hour incubation, test compound up to 10 μM, cAMP 1×10^−5M, read-out: PDE4 IC50 range. As to the method:
Human recombinant PDE4 (Genbank accession no NM_006203) was incubated for 1 hour with the test compound at concentrations up to 10 μM, with cAMP (1×10^−5M), and with a low amount (0.021 MBq) of radioactively labelled cAMP. At the end of the incubation, the cleavage of the substrate was evaluated by the binding of the AMP product to SPA beads, which generate chemoluminescence when bound to the radioactive tracer. The AMP product inhibited the binding of the radioactive tracer to the beads, and the luminescent signal was competed.
The results were calculated as the molar concentrations resulting in 50% inhibition of the substrate cleavage compared to controls samples, and are expressed as a range of IC50 (M).
The compounds of the present invention were tested in the PDE4 assay.
With `COc1ccc(-c2ccc(OC)c3c2CCC3=O)c(OCC(C)C)c1OC` [Compound 168, 4-(2-Isobutoxy-3,4-dimethoxy-phenyl)-7-methoxy-indan-1-one], the IC50 is no less than 500 nM. With `COc1ccc(-c2ccc3c(c2)CCC3=O)c(OCC(C)C)c1OC` [Compound 169, 5-(2-Isobutoxy-3,4-dimethoxy-phenyl)-indan-1-one] the figure was less than 100 nM; with `COc1ccc(-c2ccc3c(c2)COC3=O)c(OCC(C)C)c1OC` [Compound 170, 5-(2-Isobutoxy-3,4-dimethoxy-phenyl)-3H-isobenzofuran-1-one], less than 100 nM; with `COc1ccc(-c2ccc3c(c2)C(C)N(C)C3=O)c(OCC(C)C)c1OC` (stereo not shown) [Compound 171, 5-(2-Isobutoxy-3,4-dimethoxy-phenyl)-2,3-dimethyl-2,3-dihydro-isoindol-1-one], no less than 500 nM. With `COc1ccc(-c2ccc3c(c2)CN(C)C3=O)c(OCC(C)C)c1OC` [Compound 172, 5-(2-Isobutoxy-3,4-dimethoxy-phenyl)-2-methyl-2,3-dihydro-isoindol-1-one] the figure was no less than 500 nM; with `COc1ccc(-c2cccc3c2CNC3=O)c(OCC(C)C)c1OC` [Compound 173, 4-(2-Isobutoxy-3,4-dimethoxy-phenyl)-2,3-dihydro-isoindol-1-one], 100 to 500 nM.

For the molecule `COc1ccc(-c2ccc3c(c2)CNC3=O)c(OCC(C)C)c1OC` [Compound 174, 5-(2-Isobutoxy-3,4-dimethoxy-phenyl)-2,3-dihydro-isoindol-1-one], the IC50 was less than 100 nM.

`COc1ccc(-c2cccc3c2COC3=O)c(OCC(C)C)c1OC` [Compound 175, 4-(2-Isobutoxy-3,4-dimethoxy-phenyl)-3H-isobenzofuran-1-one]: the IC50 is less than 100 nM. With `COc1ccc(-c2ccc3c(c2)OCC3=O)c(OCC(C)C)c1OC` [Compound 176, 6-(2-Isobutoxy-3,4-dimethoxy-phenyl)-benzofuran-3-one] the figure was 100 to 500 nM; with `COc1ccc(-c2cccc3c2CCC3=O)c(OCC2(CO)CC2)c1OC` [Compound 177, 4-[2-(1-Hydroxymethyl-cyclopropylmethoxy)-3,4-dimethoxy-phenyl]-indan-1-one], less than 100 nM. With `COCC1(COc2c(-c3cccc4c3CCC4=O)ccc(OC)c2OC)CC1` [Compound 178, 4-[3,4-Dimethoxy-2-(1-methoxymethyl-cyclopropylmethoxy)-phenyl]-indan-1-one] the figure was less than 100 nM.

Take `CCNC(=O)OCC1(COc2c(-c3cccc4c3CCC4=O)ccc(OC)c2OC)CC1` [Compound 179, Ethyl-carbamic acid 1-[2,3-dimethoxy-6-(1-oxo-indan-4-yl)-phenoxymethyl]-cyclopropylmethyl ester]: the IC50 is less than 100 nM.

With `COc1ccc(-c2cccc3c2CCC3=O)c(OCC2(COC(=O)NC(C)C)CC2)c1OC` [Compound 180, Isopropyl-carbamic acid 1-[2,3-dimethoxy-6-(1-oxo-indan-4-yl)-phenoxymethyl]-cyclopropylmethyl ester], the IC50 was less than 100 nM. With `COc1ccc(-c2cccc3c2CCC3=O)c(OCC2(COC(=O)NCc3ccccc3)CC2)c1OC` [Compound 181, Benzyl-carbamic acid 1-[2,3-dimethoxy-6-(1-oxo-indan-4-yl)-phenoxymethyl]-cyclopropylmethyl ester] the figure was less than 100 nM; with `COc1ccc(-c2cccc3c2CCC3=O)c(OCC2(CNC(=O)C(C)C)CC2)c1OC` [Compound 183], less than 100 nM. With `CCCC(=O)NCC1(COc2c(-c3cccc4c3CCC4=O)ccc(OC)c2OC)CC1` [Compound 184, N-{1-[2,3-Dimethoxy-6-(1-oxo-indan-4-yl)-phenoxymethyl]-cyclopropylmethyl}-butyramide] the figure was less than 100 nM; with `COc1ccc(-c2cccc3c2CCC3=O)c(OCC2(CNC(C)=O)CC2)c1OC` [Compound 185, N-{1-[2,3-Dimethoxy-6-(1-oxo-indan-4-yl)-phenoxymethyl]-cyclopropylmethyl}-acetamide], less than 100 nM; with `CCOC(=O)NCC1(COc2c(-c3cccc4c3CCC4=O)ccc(OC)c2OC)CC1` [Compound 186, {1-[2,3-Dimethoxy-6-(1-oxo-indan-4-yl)-phenoxymethyl]-cyclopropylmethyl}-carbamic Acid Ethyl Ester], less than 100 nM. With `COc1ccc(-c2cccc3c2CCC3=O)c(OCC2(CNC(=O)OC(C)C)CC2)c1OC` [Compound 187, {1-[2,3-Dimethoxy-6-(1-oxo-indan-4-yl)-phenoxymethyl]-cyclopropylmethyl}-carbamic Acid Isopropyl Ester] the figure was less than 100 nM; with `COCCOC(=O)NCC1(COc2c(-c3cccc4c3CCC4=O)ccc(OC)c2OC)CC1` [Compound 188, {1-[2,3-Dimethoxy-6-(1-oxo-indan-4-yl)-phenoxymethyl]-cyclopropylmethyl}-carbamic acid 2-methoxy-ethyl Ester], less than 100 nM; with `CCNC(=O)OCC1(COc2c(-c3cccc4c3CCC4=O)ccc(OC)c2OC)COC1` [Compound 189, Ethyl-carbamic acid 3-[2,3-dimethoxy-6-(1-oxo-indan-4-yl)-phenoxymethyl]-oxetan-3-ylmethyl ester], less than 100 nM. On to `COCC1(COc2c(-c3cccc4c3CCC4=O)ccc(OC)c2OC)COC1` [Compound 190, 4-[3,4-Dimethoxy-2-(3-methoxymethyl-oxetan-3-ylmethoxy)-phenyl]-indan-1-one], for which the IC50 is less than 100 nM. With `COc1ccc(-c2cccc3c2CCC3=O)c(OCC2(CNC(C)=O)COC2)c1OC` [Compound 192, N-{3-[2,3-Dimethoxy-6-(1-oxo-indan-4-yl)-phenoxymethyl]-oxetan-3-ylmethyl}-acetamide], the IC50 was less than 100 nM. With `COc1ccc(-c2cccc3c2CCC3=O)c(OCC2(CNC(=O)C(C)C)COC2)c1OC` [Compound 193, N-{3-[2,3-Dimethoxy-6-(1-oxo-indan-4-yl)-phenoxymethyl]-oxetan-3-ylmethyl}-isobutyramide] the figure was less than 100 nM; with `CCCC(=O)NCC1(COc2c(-c3cccc4c3CCC4=O)ccc(OC)c2OC)COC1` [Compound 194, N-{3-[2,3-Dimethoxy-6-(1-oxo-indan-4-yl)-phenoxymethyl]-oxetan-3-ylmethyl}-butyramide], less than 100 nM; with `COCC(=O)NCC1(COc2c(-c3cccc4c3CCC4=O)ccc(OC)c2OC)COC1` [Compound 195, N-{3-[2,3-Dimethoxy-6-(1-oxo-indan-4-yl)-phenoxymethyl]-oxetan-3-ylmethyl}-2-methoxy-acetamide], less than 100 nM. With `CCOC(=O)NCC1(COc2c(-c3cccc4c3CCC4=O)ccc(OC)c2OC)COC1` [Compound 196, {3-[2,3-Dimethoxy-6-(1-oxo-indan-4-yl)-phenoxymethyl]-oxetan-3-ylmethyl}-carbamic acid ethyl ester] the figure was less than 100 nM. Take `COc1ccc(-c2cccc3c2CCC3=O)c(OCC2(CNC(=O)OC(C)C)COC2)c1OC` [Compound 197, {3-[2,3-Dimethoxy-6-(1-oxo-indan-4-yl)-phenoxymethyl]-oxetan-3-ylmethyl}-carbamic acid isopropyl ester]: the IC50 was less than 100 nM.

For the molecule `COCCOC(=O)NCC1(COc2c(-c3cccc4c3CCC4=O)ccc(OC)c2OC)COC1` [Compound 198, {3-[2,3-Dimethoxy-6-(1-oxo-indan-4-yl)-phenoxymethyl]-oxetan-3-ylmethyl}-carbamic acid 2-methoxy-ethyl ester], the IC50 is less than 100 nM.

As for `CNC(=O)C(C)(C)COc1c(-c2cccc3c2CCC3=O)ccc(OC)c1OC` [Compound 200, 3-[2,3-Dimethoxy-6-(1-oxo-indan-4-yl)-phenoxy]-2,2,N-trimethyl-propionamide], the IC50 was less than 100 nM.

As to `CCNC(=O)C(C)(C)COc1c(-c2cccc3c2CCC3=O)ccc(OC)c1OC` [Compound 201, 3-[2,3-Dimethoxy-6-(1-oxo-indan-4-yl)-phenoxy]-N-ethyl-2,2-dimethyl-propionamide], the IC50 is less than 100 nM. With `COc1ccc(-c2cccc3c2CCC3=O)c(OCC(C)(C)C(=O)N(C)C)c1OC` [Compound 202, 3-[2,3-Dimethoxy-6-(1-oxo-indan-4-yl)-phenoxy]-2,2,N,N-tetramethyl-propionamide] the figure was less than 100 nM. With `COc1ccc(-c2cccc3c2CCC3=O)c(OCC(C)(C)C(=O)NC2CC2)c1OC` [Compound 203, N-Cyclopropyl-3-[2,3-dimethoxy-6-(1-oxo-indan-4-yl)-phenoxy]-2,2-dimethyl-propionamide] the figure was less than 100 nM. With `COc1ccc(-c2cccc3c2CCC3=O)c(OCC(C)(C)C(=O)N2CCOCC2)c1OC` [Compound 204, 4-[2-(2,2-Dimethyl-3-morpholin-4-yl-3-oxo-propoxy)-3,4-dimethoxy-phenyl]-indan-1-one] the figure was less than 100 nM; with `CNC(=O)C(C)(C)COc1c(-c2ccc3c(c2)CCC3=O)ccc(OC)c1OC` [Compound 206, 3-[2,3-Dimethoxy-6-(1-oxo-indan-5-yl)-phenoxy]-2,2,N-trimethyl-propionamide], less than 100 nM; with `COc1ccc(-c2ccc3c(c2)CCC3=O)c(OCC(C)(C)C(=O)N(C)C)c1OC` [Compound 207, 3-[2,3-Dimethoxy-6-(1-oxo-indan-5-yl)-phenoxy]-2,2,N,N-tetramethyl-propionamide], 100 to 500 nM. Consider `COc1ccc(-c2ccc3c(c2)CCC3=O)c(OCC(C)(C)C(=O)NC(C)C)c1OC` [Compound 208, 3-[2,3-Dimethoxy-6-(1-oxo-indan-5-yl)-phenoxy]-N-isopropyl-2,2-dimethyl-propionamide], for which the IC50 is no less than 500 nM.
